The values that follow come from patent US11040034B2 (priority 2016, dated 2021).

Like-named read-outs stand apart in the source and are kept apart here.

The conditions of data set [1]: cynomolgus monkey liver microsomes. (In general: Liver microsomes are a subcellular fraction often used to study metabolism.)
The conditions of data set [2]: rat liver microsomes.

In the case of `CCS(=O)(=O)NCc1cc(-c2nc3cc(F)c(F)cc3n2C2CC2)cnn1` [Example 52, N-((5-(1-Cyclopropyl-5,6-difluoro-1H-benzo[d]imidazol-2-yl)pyridazin-3-yl)methyl)ethanesulfonamide], the “metabolic stability in comparison to comparison example” value in data set [1] and in data set [2] was “greater metabolic stability” in each case.
